Results: PMC10582335 (Frontiers in Pharmacology, 2023)
Read-outs that look alike come from different tables or passages of the source.

Assays:
[1] = cited from earlier work; for terminal half-life: 2008
[2] = set-up: method as in Kim et al., 2019; conditions: with verapamil (inhibitor of P-gp and CYP3A4); ref Kim et al., 2019; cited from earlier work
[3] = Pharmacokinetics of rivaroxaban in rats, alone and after multiple doses of almonertinib; format: in vivo, Sprague-Dawley (SD) rats; conditions: for AUC(0-inf) / Cmax / Tmax / CL/F / MRT last / MRT inf / Vd/F: po; for CL/F: read-out: CLz/F (converted); for MRT last: read-out: MRT0-t; for MRT inf: read-out: MRT0-∞; for Vd/F: read-out: Vz/F; for half-life: read-out: t1/2z (converted)
Experimental: Analytes were measured using UPLC-MS/MS, which was equipped with an LC-30A ultra-performance liquid chromatography (Shimadzu, Kyoto, Japan) and Sciex Triple Quad 5,500 tandem triple quadrupole mass spectrometer (AB Sciex, Framingham, MA, United States). Chromatographic separation was performed using an XSelect HSS T3 column (2.1 mm × 100 mm, 2.5 µm, Waters, Milford, MA, United States) at 40°C by gradient elution. The mobile phase consisted of water (A) and acetonitrile (0.1% formic acid, B). The elution procedure was as follows: 0–1.0 min, 50% B; 1.0–1.5 min, 50%→98% B; 1.5–3.0 min, 98% B; 3.0–3.1 min, 98%→50% B; 3.1–4.1 min, 50% B. The flow rate was 0.35 mL min^−1, and the injection volume was 6 µL.
The positive ion mode with multiple reaction detection was used. […] The mass spectrometer conditions, including delustering potential (DP) and collision energy (CE) of the compounds, are shown in Table 1. Other parameters of the mass spectrometer were as follows: ion source gas 1, 60.0 psi; ion source gas 2, 50.0 psi; curtain gas, 25.0 psi; source temperature, 500°C; ion spray voltage, 5,500 V.
Protein precipitation was used to process the plasma samples. 5 μL of mixed IS working solution, 50 µL of the plasma samples, and 150 µL of acetonitrile were vortex-mixed for 1.0 min. Then, the mixture was centrifuged at 13,000 × g for 10 min; 100 µL of 50% acetonitrile-water was added to 100 µL of supernatant, vortex-mixed, and centrifuged again. The supernatant was transferred to a 96-well plate for sample analysis.
Healthy male Sprague-Dawley (SD) rats weighing 250 ± 20 g were purchased from Beijing Huafukang Biotechnology Co., Ltd. (Beijing, China). The license number is SCXK (Beijing) 2019–0008. The study was approved and supervised by the Animal Ethics Committee of Hebei General Hospital (Shijiazhuang, China) (No. 2023024). Adaptive feeding (sufficient food and water) was performed for 1 week before the experiment. All the rats were kept under suitable conditions (12 h dark-light diurnal cycle, appropriate temperature at 23°C–25°C, relative humidity of 50% ± 10%). All rats were fasted for 12 h before starting the experiments while still given water.
Sixty healthy rats were randomly divided into ten groups (n = 6). […] Blood samples were centrifuged at 3,500 g for 10 min, and then the supernatant was gathered and stored in a −80°C refrigerator. After, rat intestine, kidney and liver tissues were harvested for molecular analysis on the ninth or fifth day after treatment with the corresponding drugs for each group. The tissues were placed immediately at −80°C.
DAS 2.1.1 Software (Mathematical Pharmacology Professional Committee of China, Shanghai, China) was applied to calculate pharmacokinetic parameters using non-compartmental analysis. SPSS 25.0 statistical software (SPSS Inc., Chicago, IL, United States) was applied to statistically analyze the main pharmacokinetic parameters, including AUC, Cmax, Tmax, t1/2, CLz/F, Vz/F, and MRT. Statistical comparisons were conducted using a analysis of variance, t-test or nonparametric rank-sum test depending on the data type; p-value <0.05 was deemed statistically significant.

[4] = Stability in rat plasma under storage and processing conditions (QC samples, UPLC-MS/MS); conditions: n = 6
Experimental: The stability of plasma samples was validated by the QC samples at three concentration levels in six replicates under various storage and processing conditions: autosampler for 24 h after preprocessing, room temperature for 8 h, −80°C for 30 days, and three freeze-thaw cycles (−80°C to room temperature). The samples were verified to be stable if the deviation of the samples was not more than ±15% of the standard concentration.

[5] = male, Sprague-Dawley, rat, plasma, 1 mg/kg, rats, oral rivaroxaban 1 mg/kg after almonertinib 15 mg/kg for nine days (group 6), mean ± SD, n = 6
[6] = male, Sprague-Dawley, rat, plasma, 2 mg/kg, rats, oral rivaroxaban 2 mg/kg after almonertinib 15 mg/kg for nine days (group 5), mean ± SD, n = 6
[7] = male, Sprague-Dawley, rat, plasma, 2 mg/kg, rats, oral rivaroxaban 2 mg/kg alone (group 1), mean ± SD, n = 6
[8] = rats, oral rivaroxaban 2 mg/kg after almonertinib 15 mg/kg for nine days (group 5), mean ± SD, n = 6
[9] = rivaroxaban 1 mg/kg with multiple doses of almonertinib (group 6) compared to group 1, rats
[10] = rivaroxaban 2 mg/kg with multiple doses of almonertinib (group 5) compared to group 1, rats
[11] = Freeze-thaw stability for three times, high QC (nominal 150 almonertinib, 800 apixaban, 1,500 rivaroxaban ng/mL)
[12] = Freeze-thaw stability for three times, low QC (nominal 1 almonertinib, 2 apixaban, 10 rivaroxaban ng/mL)
[13] = Freeze-thaw stability for three times, medium QC (nominal 80 almonertinib, 400 apixaban, 800 rivaroxaban ng/mL)
[14] = Room temperature for 8 h, high QC (nominal 150 almonertinib, 800 apixaban, 1,500 rivaroxaban ng/mL)
[15] = Room temperature for 8 h, low QC (nominal 1 almonertinib, 2 apixaban, 10 rivaroxaban ng/mL)
[16] = Room temperature for 8 h, medium QC (nominal 80 almonertinib, 400 apixaban, 800 rivaroxaban ng/mL)
[17] = −80°C for 30 days, high QC (nominal 150 almonertinib, 800 apixaban, 1,500 rivaroxaban ng/mL)
[18] = −80°C for 30 days, low QC (nominal 1 almonertinib, 2 apixaban, 10 rivaroxaban ng/mL)
[19] = −80°C for 30 days, medium QC (nominal 80 almonertinib, 400 apixaban, 800 rivaroxaban ng/mL)

Compound: O=C(NC[C@H]1CN(c2ccc(N3CCOCC3=O)cc2)C(=O)O1)c1ccc(Cl)s1 [rivaroxaban, Rivaroxaban]
- time of the maximal blood concentration after oral intake ([1]; (±1 h), each of two drugs, ref Steffel et al., 2021): 2 to 3 h
- time to reach maximum plasma concentrations ([1]; after oral administration, ref Kubitza et al., 2005a, Kubitza et al., 2005b, Raghavan et al., 2009): 2 to 4 h
- terminal half-life ([1]; elderly subjects, ref Kubitza et al., 2005a, Kubitza et al.): 11 to 13 h
- terminal half-life ([1]; healthy young subjects, ref Kubitza et al., 2005a, Kubitza et al.): 5 to 9 h
- increase of systemic exposure of rivaroxaban [2]: 2.8 fold
- increase of AUC of rivaroxaban ([3]; after a half dose reduction of rivaroxaban, multiple doses of almonertinib, rats (discussion)): ~1.9 fold
- increase of AUC of rivaroxaban ([3]; co-administration with almonertinib for multiple doses, rats (discussion, AUC not specified further)): more than 3.0 fold
- AUC(0-inf) [3, 5]: 2230 ng·h/mL
- Cmax [3, 5]: 457 ± 101 ng/mL
- Tmax [3, 5]: 2.08 ± 0.49 h
- CL/F [3, 5]: 7.83 mL/min/kg
- MRT last [3, 5]: 4.1 ± 0.41 h
- MRT inf [3, 5]: 4.3 ± 0.47 h
- Vd/F [3, 5]: 2.83 ± 0.55 L/kg
- AUC(0-inf) [3, 6]: 3540 ng·h/mL
- Cmax [3, 6]: 862 ± 110 ng/mL
- Tmax [3, 6]: 2.21 ± 0.95 h
- CL/F [3, 6]: 10 mL/min/kg
- MRT last [3, 6]: 3.94 ± 0.56 h
- MRT inf [3, 6]: 4.12 ± 0.6 h
- Vd/F [3, 6]: 3.75 ± 0.72 L/kg
- AUC(0-inf) [3, 7]: 797 ± 169 ng·h/mL
- Cmax [3, 7]: 200 ± 38 ng/mL
- Tmax [3, 7]: 0.92 ± 0.3 h
- CL/F [3, 7]: 43.7 mL/min/kg
- MRT last [3, 7]: 4.72 ± 0.57 h
- MRT inf [3, 7]: 6.09 ± 1.45 h
- Vd/F [3, 7]: 26.4 ± 18 L/kg
- AUC(0-t) ([3]; male, Sprague-Dawley, rat, plasma, rats, oral rivaroxaban 1 mg/kg after almonertinib 15 mg/kg for nine days (group 6), mean ± SD, n = 6, read-out: AUC0-t): 2220 ng·h/mL
- half-life ([3]; male, Sprague-Dawley, rat, plasma, rats, oral rivaroxaban 1 mg/kg after almonertinib 15 mg/kg for nine days (group 6), mean ± SD, n = 6): 4.3 ± 0.91 h
- AUC(0-t) ([3]; male, Sprague-Dawley, rat, plasma, rats, oral rivaroxaban 2 mg/kg alone (group 1), mean ± SD, n = 6, read-out: AUC0-t): 764 ± 164 ng·h/mL
- half-life ([3]; male, Sprague-Dawley, rat, plasma, rats, oral rivaroxaban 2 mg/kg alone (group 1), mean ± SD, n = 6): 6.84 ± 3.46 h
- AUC(0-t) [3, 8]: 3,511.15 ± 783.84 μg/L*h
- t1/2z [3, 8]: 4.47 ± 0.80 h
- Tmax of rivaroxaban longer than control [3, 9]: 1.26 fold
- decrease of CLz/F of rivaroxaban [3, 9]: 4.57 fold
- increase of AUC0-t of rivaroxaban [3, 9]: 1.90 fold
- Tmax of rivaroxaban longer than control [3, 10]: 1.40 fold
- decrease of CLz/F of rivaroxaban [3, 10]: 3.37 fold
- increase of AUC0-t of rivaroxaban [3, 10]: 3.60 fold
- increase of AUC0-∞ of rivaroxaban [3, 10]: 3.44 fold
- Stability: Accuracy (RE%) [4, 11]: −5.56%
- Stability: measured concentration, Mean ± SD [4, 11]: 1,416.67 ± 48.85 ng/mL
- Stability: Accuracy (RE%) [4, 12]: 1.13%
- Stability: measured concentration, Mean ± SD [4, 12]: 10.11 ± 0.61 ng/mL
- Stability: Accuracy (RE%) [4, 13]: −3.21%
- Stability: measured concentration, Mean ± SD [4, 13]: 774.33 ± 23.28 ng/mL
- Stability: Accuracy (RE%) [4, 14]: −1.11%
- Stability: measured concentration, Mean ± SD [4, 14]: 1,483.33 ± 72.30 ng/mL
- Stability: Accuracy (RE%) [4, 15]: 7.75%
- Stability: measured concentration, Mean ± SD [4, 15]: 10.78 ± 0.59 ng/mL
- Stability: Accuracy (RE%) [4, 16]: 4.19%
- Stability: measured concentration, Mean ± SD [4, 16]: 833.50 ± 49.92 ng/mL
- Stability: Accuracy (RE%) [4, 17]: −4.33%
- Stability: measured concentration, Mean ± SD [4, 17]: 1,435.00 ± 96.07 ng/mL
- Stability: Accuracy (RE%) [4, 18]: 6.83%
- Stability: measured concentration, Mean ± SD [4, 18]: 10.68 ± 0.22 ng/mL
- Stability: Accuracy (RE%) [4, 19]: −4.38%
- Stability: measured concentration, Mean ± SD [4, 19]: 765.00 ± 58.14 ng/mL
